{
  "source": "paper PMC11530130",
  "about": "“Peripherally restricted PICK1 inhibitor mPD5 ameliorates pain behaviors in murine inflammatory and neuropathic pain models” (JCI Insight, 2024)",
  "key": {"[1]": {"tested_on": "mice, spared nerve injury (SNI) model", "experiment": "SNI model, von Frey, single s.c. dose, female mice", "type": "in vivo, mouse", "details": "s.c. 2, 10, 50 μmol/kg (all tested doses), 1 hour after injection", "protocol": "solution (0.05 mg/kg) injected s.c. 30 min before surgery (10 μL/g). For surgery, mice were anaesthetised with ketamine (100 mg/kg, i.p.) and xylazine (10 mg/kg, i.p.) (volume 10 µL/g) with 100 μL of 1% xylocaine solution infiltrated at the site of the incision. The distal trifurcation of the sciatic nerve was identified, and the tibial and common peroneal branches were ligated with polypropylene nonabsorbable 6-0 sutures (Ethicon) and 1 mm was cut out, leaving the sural branch intact. The wound was closed with sutures, and the animals were allowed to recover and returned to their cages. […]\nWounds were closed with surgical glue or medical clips and animals were monitored daily for signs of stress or discomfort, but in all cases recovered uneventfully. […]\nUnless otherwise specified, von Frey occurred as described in the following. […] Mechanical paw withdrawal threshold (PWT) was determined by von Frey measurements of both hind paws. […]\nMice were placed in PVC plastic boxes (11.5 cm x 14 cm) on a wire mesh and allowed minimum 20 min habituation prior of experiment initiation. Each von Frey hair was applied five times with adequate resting periods between each application and number of withdrawals recorded. The withdrawal threshold was determined as the von Frey filament eliciting at least three positive trials out of the five applications in two consecutive filaments. […]"}, "[2]": {"experiment": "Plasma exposure after single s.c. injection, LC-MS/MS", "type": "in vivo, mouse", "design": "maximal plasma concentration / plasma concentration, individual mice: unit not given here", "protocol": "Assessment of plasma levels and biodistribution of mPD5.\nThe mPD5 plasma exposure was determined by (WuXI AppTec (Shanghai, China)) and done following s.c. injection of three male C57BL/6N (vendor: VTLH) mice (7-9 weeks old, fasted) with each concentration of mPD5 (2, 10 and 50 µmol/kg) in sterile PBS. Blood samples were taken 30 min, 1 hour, 2 hours, 5 hours, and 12 hours following injection. For the repeated administration experiment, the initial s.c. injection of 10 µmol/kg was followed by 4 s.c. administrations of 2 µmol/kg with one hour between injections. Following the last injection, blood samples (0.03 mL from saphenous vein or other suitable site) were collected in EDTA- […]\nK2 tubes at 5 min, 30 min, 1 hour, 5 hours, 12 hours, 24 hours, and 48 hours and centrifuged (app 4 ℃, 3200 g, 10 min) for collection of plasma. Plasma was transferred to 96 well plates and quick-frozen over dry ice and kept at -60 ℃ until LC-MS/MS analysis. For LC-MS/MS analysis plasma with 0.25% Triton X100 in 50% MeOH/water (6 µL) was quenched with 160 µL of IS1 (internal standard in MeOH (Labetalol & tolbutamide & Verapamil & dexamethasone & glyburide & Celecoxib 100 ng/mL for each)) and the mixture was vortexed for 10 min at 800 rpm and centrifuged for 15 min at 3220 × g at 4 ℃. An aliquot of 65 µL supernatant was transferred to a clean 96-well plate and centrifuged for 5 min at 3220 × g at 4 ℃, then the supernatant was directly injected for LC-MS/MS analysis. Plasma half-lives were determined from three points in the elimination phase. […]"}},
  "note": "“And” between values parts separate entries of the source, which are not always exact repeats. Identical values can stand only once. “Also recorded” adds a separate entry of the source.",
  "data": [
    {"smiles": "CCCCCCCCCCCCCC(=O)N(CCOCCOCCC(=O)N[C@@H](Cc1c[nH]cn1)C(=O)N[C@@H](Cc1c[nH]c2ccccc12)C(=O)N[C@@H](CC(C)C)C(=O)N[C@@H](CCCCN)C(=O)N[C@H](C(=O)O)C(C)C)CCOCCOCCC(=O)N[C@@H](Cc1c[nH]cn1)C(=O)N[C@@H](Cc1c[nH]c2ccccc12)C(=O)N[C@@H](CC(C)C)C(=O)N[C@@H](CCCCN)C(=O)N[C@H](C(=O)O)C(C)C", "note": "[mPD5, myristoyl-NPEG4-(HWLKV)2]", "values": [
      {"measurement": "effect on mechanical hypersensitivity (PWT)", "setting": "[1]", "value": "significantly reduced mechanical hypersensitivity"},
      {"measurement": "half-life", "setting": "[2]; male, C57BL/6N, mouse, plasma, sc, 2 umol/kg, mice, s.c. 2 μmol/kg", "value": "30 ± 4.2", "unit": "min"},
      {"measurement": "half-life", "setting": "[2]; male, C57BL/6N, mouse, plasma, sc, 10 umol/kg, mice, s.c. 10 μmol/kg", "value": "35.4 ± 4.2", "unit": "min"},
      {"measurement": "half-life", "setting": "[2]; male, C57BL/6N, mouse, plasma, sc, 10 umol/kg; mice, s.c. 10 μmol/kg", "value": 36, "unit": "min"},
      {"measurement": "half-life", "setting": "[2]; male, C57BL/6N, mouse, plasma, sc, 50 umol/kg, mice, s.c. 50 μmol/kg", "value": "50.4 ± 1.8", "unit": "min"},
      {"measurement": "Tmax", "setting": "[2]; male, C57BL/6N, mouse, plasma, sc, 50 umol/kg; mice, s.c., all doses (2, 10, 50 μmol/kg); read-out: time of maximal plasma concentration", "value": 60, "unit": "min"},
      {"measurement": "maximal plasma concentration", "setting": "[2]; mice, s.c. 2 μmol/kg, 1 hour", "value": "1.4 ± 0.1"},
      {"measurement": "maximal plasma concentration", "setting": "[2]; mice, s.c. 10 μmol/kg, 1 hour", "value": "6.2 ± 5"},
      {"measurement": "maximal plasma concentration", "setting": "[2]; mice, s.c. 50 μmol/kg, 1 hour", "value": "20.2 ± 0.6"},
      {"measurement": "maximal dose and area under the curve vs dose", "setting": "[2]; mice, s.c. 2, 10, 50 μmol/kg", "value": "scaled linearly with dose"},
      {"measurement": "distribution volume", "setting": "[2]; mice, s.c., all concentrations", "value": "approximately 30 mL"},
      {"measurement": "elimination kinetics", "setting": "[2]; mice, s.c., all doses", "value": "first-order kinetics; also recorded: eliminated with linear kinetics"},
      {"measurement": "plasma concentration, individual mice", "setting": "[2]; s.c. 2µmol/kg; 0.5 h", "value": "1295 and 1523 and 1490"},
      {"measurement": "plasma concentration, individual mice", "setting": "[2]; s.c. 2µmol/kg; 1 h", "value": "1326 and 1469 and 1351"},
      {"measurement": "plasma concentration, individual mice", "setting": "[2]; s.c. 2µmol/kg; 2 h", "value": "439 and 392 and 443"},
      {"measurement": "plasma concentration, individual mice", "setting": "[2]; s.c. 2µmol/kg; 5 h", "value": "8.69 and 2.25 and 8.61"},
      {"measurement": "plasma concentration, individual mice", "setting": "[2]; s.c. 10µmol/kg; 0.5 h", "value": "4235 and 5102 and 3488"},
      {"measurement": "plasma concentration, individual mice", "setting": "[2]; s.c. 10µmol/kg; 1 h", "value": "6616 and 5618 and 6285"},
      {"measurement": "plasma concentration, individual mice", "setting": "[2]; s.c. 10µmol/kg; 2 h", "value": "2485 and 2007 and 1777"},
      {"measurement": "plasma concentration, individual mice", "setting": "[2]; s.c. 10µmol/kg; 5 h", "value": "101 and 46.6 and 33.1"},
      {"measurement": "plasma concentration, individual mice", "setting": "[2]; s.c. 50µmol/kg; 0.5 h", "value": "12546 and 11390 and 17752"},
      {"measurement": "plasma concentration, individual mice", "setting": "[2]; s.c. 50µmol/kg; 1 h", "value": "20045 and 20980 and 19750"},
      {"measurement": "plasma concentration, individual mice", "setting": "[2]; s.c. 50µmol/kg; 2 h", "value": "14800 and 13957 and 8907"},
      {"measurement": "plasma concentration, individual mice", "setting": "[2]; s.c. 50µmol/kg; 5 h", "value": "1391 and 1198 and 438"},
      {"measurement": "plasma concentration, individual mice", "setting": "[2]; s.c. 50µmol/kg; 12 h", "value": "3.21 and 3.81 and 2.66"}
    ]}
  ]
}
